# Laboratory results as given in patent US5147652A, “Autobiotics and their use in eliminating nonself cells in vivo” (priority 1990, dated 1992).
# Key:
# [1] = test system: Candida albicans; experiment: Effect on proliferation of Candida albicans, disk on agar surface (A); format: cell-based
# Protocol: Stock solutions of the following test compounds were dissolved in physiological saline. However DOV was dissolved in water.
# C. albicans isolated from clinical specimens were density grown in SubbaRow's broth at 35 C. A loopful of yeast suspension was evenly spread on the surface of Muller-Hilton agar plates (7cm diameter) with a sterile cotton applicator and incubated for 12 hours. The test compounds were placed on the surface of the sensidisks (Whatmann No. 17 paper, 6mm diameter) in a volume of 5, 10, 20, and 50 μliter of stock solutions and made up a final volume of 50 μliter with saline. The plates then were placed and kept at 37 C for 24 hours (*) and 48 hours (**) when the diameters of the inhibitory rings were recorded. Photographs were also taken of plates.
# [2] = test system: blood coagulation (citrated human blood plasma); experiment: Blood coagulation (i), ketoaldehyde kept 1-2 seconds before plasma added; format: biochemical; settings: for d % (clotting activity) / coagulation time / clot: 1-2 seconds contact; for d % (clotting activity): control 22; for coagulation time: control 24; for clot: control hard; for anti-coagulant effectiveness: summary of Example 9
# Protocol: (§1) 200 microliter thromboplastin (Ortho) was mixed with 10 microliter ketoaldehyde (KA) stock solution. Then 100 microliter citrated human blood plasma was added and the clot formation time (in seconds) was measured on a Fibrionometer. The effect of the ketoaldehyde on coagulation time was evaluated by comparing the clotting time of the KA treated plasma with the untreated control. The result (d%) was read from a special chart expressing the clotting activity.
# (§2) All measurements were run in triplicates. The assay was run at 37 C (waterbath) in special tubes and all solutions were prewarmed.
# (i) The plasminogen and ketoaldehyde were kept for
# 1-2 seconds before the blood plasma was added.
# [3] = test system: C. albicans; experiment: Inhibition of C. albicans, yeast mixed in agar (B); format: cell-based; settings: 30 μl test, 24 hrs incubation; mean of twenty assays
# Protocol: Stock cultured C. albicans is used. The yeast isolated from clinical specimens was stock cultured (subcultured) on semisolid trypsoy agar plates. […] Thus, from the subculture(s), transfers were made every 48 hrs into SRB to keep the experimental strain available for assays. From the 24-48 hrs SRB cultures a loopful of turbid solutions was transferred and spread on either (a) trypsoy agar plates or (b) EBM agar plates which were fortified with horse and calf serum and incubated at 36 C for 24-48 hrs. […] Plate (a) was selected for growth inhibition assay(s) with ketoaldehydes.
# One milliliter of SRB culture (24-48 hrs growth) was mixed with 10 ml trypsoy agar, warmed to 38 C and rapidly poured into sterile Petri dishes (7cm), spread evenly and allowed to solidify. The selected test compounds (in 30 μl total volume, as above) were placed in sensidisks (6mm dia, Whatman #17) on the infected agar surface. The plates were incubated for 24 hrs at 37 C. The extent of inhibition, clear zones around the sensi disks, were measured and recorded. In some cases contact photorecords were also made with the plates. (The dark zones on the photos are the inhibition (no growth) areas of C. albicans.
# These assays were aimed at finding the variations of inhibition due to (i) the variable amount of yeast in (ii) a three dimensional area of the plates. Each result is the statistical mean of twenty assays on different batches of C. albicans.
# [4] = test system: blood coagulation (normal plasma); experiment: Blood coagulation (ii)(b), normal plasma; format: biochemical, human
# Protocol: as §1, §2
# (ii) The plasminogen and KA were incubated for
# varying time before the blood plasma was added.
# (b) with normal plasma: clotting time = 11. 7 sec
# [5] = test system: Candida albicans; settings: cited from earlier work
# [6] = test system: Penicillum notatum; experiment: Inhibition of proliferation of molds, disk assay; format: cell-based; parameters: unit not given here; settings: 40 hrs
# Protocol: (§3) (1) Stock solutions in 26% 2 popanediol:
# (§4) (3) Assay: The microorganisms were grown in Saburand's dextrose agar (Scott) at 35 C for stock cultures. For assay the spores were plated on Mueller-Hilton agar plates (7cm dia). The test compounds were applied to the plates on sensi disks (6 mm dia, Whatmann #17 paper) in volumes of 10, 20, 30, 40 microliter made up to 40 plating volume of microliter with the solvent. The plates were incubated at room temperature and in the dark for 40 hrs. The diameter of the inhibition ring around the sensi disks were measured.
# [7] = test system: Aspergillus niger; experiment: Inhibition of proliferation of molds, disk assay; format: cell-based; parameters: unit not given here; settings: 40 hrs
# Protocol: as §3, §4
# [8] = test system: Penicillum notatum; experiment: Inhibition of proliferation of molds, disk assay; format: cell-based; settings: 8 days; for persistence of inhibition rings: highest concentration; for spore formation / mycelium development in second ring: penicillin plate
# [9] = test system: implantation of fertilized mouse eggs; experiment: Preventing pregnancy in mice; format: in vivo
# Protocol: Six 5 month old female CD-1 mice were injected intraperitoneally with N-1 hydroxy acetonyl maleimide for 12 days (50 microgram/ 20 g mice in saline: max volume 0.6 ml/A/D). Another group of the same mice were injected intraperitoneally with saline for 12 days (0.4ml). this second group of mice served as the control.
# Two experienced males were introduced to each group of females and kept together for 8 days during which time the females received their daily injection. Copulation plugs were seen on each female by the 12th day of injection, and signs of pregnancy were seen on the control females on the 15-16th day of the experiment. The females delivered on 20-23 (control) and 24-27th (treated) day respectively (Table 3).
# The experiment was repeated with the same females two months later, except that females of the control group were assigned to the test group, while females of the test group were reassigned to the control group. […] The control group delivered 102 pups (T/C =100%).
# [10] = test system: skin graft rejection; experiment: Combatting rejection mechanism: orthotopic skin transplants between Swiss albino and C3HStCrl mice; format: in vivo
# Protocol: The experiments described here were performed on random-bred Swiss albino mice (white, females, average body weight 26±3 g; Charles River CD-1-strain) and inbred C3HStCrl mice (cinnamon gray, females, average body weight […]; Charles River pedigreed breeders from L.C. Strong Foundation) and othotopic skin transplants were made in both ways, that is, white to gray and gray to white.
# Standard transplantation technique (Billingham, R.E. and W.K. Silvers in Transplantation of Tissues and Cells, The Wistar Institute Press, Philadelphia, p. 8, (1961)) was utilized: From nembutal anesthetized animals 4-6 "pinch" -grafts (full thickness, 3-4 mm in diameter) of the close clipped and sterilized skin were collected from the thorax and immediately transplanted. The grafts were positioned in the "beds" (in place of the pinch-graft) and were held in position by tulle gras (vaseline-impregnated gauze) and by plaster-of-Paris impregnated bandage around the thorax.
# The bandages were removed on the 6-9th day after the transplantation and the future development of the grafts was followed by macroscopical observations.
# a. Animals were treated for 10 days with the composition before grafts were exchanged and treatment was discontinued on the day of transplantation.
# b. Animals were not treated before the grafts were exchanged but the treatment started on the day of transplantation and continued for 10 days.
# c. Animals were treated for 10 days with the drug before the grafts were exchanged and the treatment schedule was continued for 25 days after the transplantation.
# +Treatment: daily injection with 3.744 mg/kg methylglyoxalmalcimide in 1.
# [11] = 10x diluted, incubation time 10 seconds
# [12] = 20x diluted, incubation time 30 seconds
# [13] = ip, 50 microgram/20 g mice, 12 females
molecule,measurement,setting,value
"CC(=O)CC(=O)C=O [AcMG, 3-acetylmethylglyoxal]",inhibition diameters,"[1]; 10 μliter, 24 hours (*)",18 mm
same,inhibition diameters,"[1]; 10 μliter, 48 hours (**)",11 mm
same,inhibition diameters,"[1]; 20 μliter, 24 hours (*)",31 mm
same,inhibition diameters,"[1]; 20 μliter, 48 hours (**)",24 mm
same,inhibition diameters,"[1]; 50 μliter, 24 hours (*)",34 mm
same,inhibition diameters,"[1]; 50 μliter, 48 hours (**)",30 mm
same,d % (clotting activity),[2],28%
same,coagulation time,[2],21.5 s
same,clot,[2],hard
same,inhibition diameters,[3],25.3 mm
same,clotting time,[4]; incubation time 120 seconds,13.9 s
same,d%,[4]; incubation time 120 seconds,78%
"Nc1nc(=O)[nH]cc1F [5FC, 5 fluorocytosine, reference compound]",inhibition diameters,"[1]; 5 μliter, 24 hours (*)",33 mm
same,inhibition diameters,"[1]; 10 μliter, 24 hours (*)",45 mm
same,inhibition diameters,"[1]; 20 μliter, 24 hours (*)",50 mm
same,inhibition diameters,"[1]; 50 μliter, 24 hours (*)",55 mm
same,duration of action against Candida,[5],shortlived action
same,toxicity to the host,[5],low toxicity to the host
"O=C1C=CC(=O)N1 [MALI, maleimide, reference compound]",inhibition diameters,"[1]; 5 μliter, 24 hours (*)",13 mm
same,inhibition diameters,"[1]; 10 μliter, 24 hours (*)",21 mm
same,inhibition diameters,"[1]; 10 μliter, 48 hours (**)",17 mm
same,inhibition diameters,"[1]; 20 μliter, 24 hours (*)",29 mm
same,inhibition diameters,"[1]; 20 μliter, 48 hours (**)",25 mm
same,inhibition diameters,"[1]; 50 μliter, 24 hours (*)",30 mm
same,inhibition diameters,"[1]; 50 μliter, 48 hours (**)",30 mm
"O=CC(=O)C(Cl)Cl [DCMG, 3,3-dichloromethylglyoxal]",diameter of inhibition ring,[6]; 10 microliter,8
same,diameter of inhibition ring,[6]; 20 microliter,10
same,diameter of inhibition ring,[6]; 30 microliter,13
same,diameter of inhibition ring,[6]; 40 microliter,16
same,diameter of inhibition ring,[7]; 10 microliter,10
same,diameter of inhibition ring,[7]; 20 microliter,12
same,diameter of inhibition ring,[7]; 30 microliter,14
same,diameter of inhibition ring,[7]; 40 microliter,15
same,inhibition diameters,"[1]; 10 μliter, 24 hours (*)",8 mm
same,inhibition diameters,"[1]; 20 μliter, 24 hours (*)",20 mm
same,inhibition diameters,"[1]; 20 μliter, 48 hours (**)",17 mm
same,inhibition diameters,"[1]; 50 μliter, 24 hours (*)",32 mm
same,inhibition diameters,"[1]; 50 μliter, 48 hours (**)",29 mm
same,persistence of inhibition rings,[8],remained unchanged
same,spore formation / mycelium development in second ring,[8],spore formation in this area was inhibited while mycelium development was not
same,d % (clotting activity),[2],infinite
same,coagulation time,[2],> 200 s
same,clot,[2],no
same,anti-coagulant effectiveness,[2],most effective anti-coagulants
same,inhibition diameters,[3],23.0 mm
same,clotting time,[4]; [11],12.9 s
same,clotting time,[4]; [12],20.0 s
same,d%,[4]; [12],14.7%
same,clotting time,[4]; incubation time 15 seconds,> 170.0 s
"O=CC(=O)CCl [CMG, chloromethylglyoxal]",diameter of inhibition ring,[6]; 10 microliter,8
same,diameter of inhibition ring,[6]; 20 microliter,10
same,diameter of inhibition ring,[6]; 30 microliter,12
same,diameter of inhibition ring,[6]; 40 microliter,14
same,diameter of inhibition ring,[7]; 10 microliter,8
same,diameter of inhibition ring,[7]; 20 microliter,11
same,diameter of inhibition ring,[7]; 30 microliter,17
same,diameter of inhibition ring,[7]; 40 microliter,22
same,inhibition diameters,"[1]; 10 μliter, 24 hours (*)",7 mm
same,inhibition diameters,"[1]; 20 μliter, 24 hours (*)",21 mm
same,inhibition diameters,"[1]; 20 μliter, 48 hours (**)",10 mm
same,inhibition diameters,"[1]; 50 μliter, 24 hours (*)",33 mm
same,inhibition diameters,"[1]; 50 μliter, 48 hours (**)",31 mm
same,persistence of inhibition rings,[8],remained unchanged
same,spore formation / mycelium development in second ring,[8],spore formation in this area was inhibited while mycelium development was not
same,d % (clotting activity),[2],infinite
same,coagulation time,[2],> 200 s
same,clot,[2],no
same,anti-coagulant effectiveness,[2],most effective anti-coagulants
same,inhibition diameters,[3],26.6 mm
same,clotting time,[4]; [11],13.5 s
same,d%,[4]; [11],37%
same,clotting time,[4]; incubation time 15 seconds,19.4 s
same,d%,[4]; incubation time 15 seconds,33%
same,clotting time,[4]; incubation time 100 seconds,> 178.0 s
"C[C@@H]1[C@H](O)[C@@H](C)/C=C/C=C/C=C/C=C/C=C/C=C/C=C/[C@H](O[C@@H]2O[C@H](C)[C@@H](O)[C@H](N)[C@@H]2O)C[C@@H]2O[C@](O)(C[C@@H](O)C[C@@H](O)[C@H](O)CC[C@@H](O)C[C@@H](O)CC(=O)O[C@H]1C)C[C@H](O)[C@H]2C(=O)O [AMP-B, amphotericin-B, reference compound]",inhibition diameters,"[1]; 20 μliter, 24 hours (*)",2 mm
same,inhibition diameters,"[1]; 50 μliter, 24 hours (*)",5 mm
"CC(=O)CC(=O)C(=O)O [DOV, 2,4-dioxovaleric acid, reference compound]","inhibition diameters, in words","[1]; 5-50 μliter, 24 hours (*)",negligible
CC(=O)C(O)N1C(=O)C=CC1=O (centres unmarked) [MGMALI],inhibition diameters,"[1]; 10 μliter, 24 hours (*)",8 mm
same,inhibition diameters,"[1]; 20 μliter, 24 hours (*)",18 mm
same,inhibition diameters,"[1]; 20 μliter, 48 hours (**)",17 mm
same,inhibition diameters,"[1]; 50 μliter, 24 hours (*)",22 mm
same,inhibition diameters,"[1]; 50 μliter, 48 hours (**)",22 mm
same,I %,"[9]; ip, 50 microgram/20 g mice",89.7%
same,T/C %,"[9]; ip, 50 microgram/20 g mice",10.3%
same,delivered (pups),[9]; [13],11
same,females that delivered,[9]; [13],2 female
same,inhibition of delivery,"[9]; second experiment, groups exchanged, two months later",83.3%
same,day of delivery,"[9]; treated females, control 20-23",24 to 27 days
methylglyoxalmalcimide,rejection,"[10]; (a) pretreatment 10 days, printed g to 2, 31-40 days, cumulative",100%
same,rejection,"[10]; (a) pretreatment 10 days, w to g, 26-30 days, cumulative",30%
same,rejection,"[10]; (b) post graft treatment 10 days, printed g to 2, 31-40 days, cumulative",10%
same,rejection,"[10]; (b) post graft treatment 10 days, w to g, 26-31 days, cumulative",10%
same,rejection,"[10]; (c) pretreatment 10 days and post graft 25 days, g to w, 31-40 days, cumulative",10%
same,rejection,"[10]; (c) pretreatment 10 days and post graft 25 days, w to g, 26-30 days",No rejection
"CCOC(C)C(=O)C=O (centres unmarked) [KE, kethoxal, reference compound]",inhibition diameters,"[1]; 10 μliter, 24 hours (*)",7 mm
same,inhibition diameters,"[1]; 20 μliter, 24 hours (*)",17 mm
same,inhibition diameters,"[1]; 20 μliter, 48 hours (**)",16 mm
same,inhibition diameters,"[1]; 50 μliter, 24 hours (*)",25 mm
same,inhibition diameters,"[1]; 50 μliter, 48 hours (**)",24 mm
"O=CC(=O)Cc1ccccc1 [PMG, 3-Phenylmethylglyoxal]",d % (clotting activity),[2],10.5%
same,coagulation time,[2],36 s
same,clot,[2],hard
same,clotting time,[4]; incubation time 120 seconds,21.2 s
same,d%,[4]; incubation time 120 seconds,28%
